This passage reports carcinogen call results from PubChem BioAssay AID1259411 (Chemical Carcinogenesis Research Information System (CCRIS), 2018).

The source made the active and inactive calls. No rule for the calls is given here.

This series concerns rodent carcinogenicity bioassays, tumor incidence. Briefly: CCRIS carcinogenicity studies. The procedure, abridged: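 NCI-built, expert-reviewed records of carcinogenicity and related test outcomes (mutagenicity, tumor promotion/inhibition) compiled from published and report sources, historical span 1985-2011, not updated.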

Regarding `C=Cc1ccccc1`, the carcinogen call is “inactive; negative” (Species: MOUSE, Strain/Sex: B6C3F1/FEMALE, Route: GAVAGE, Dose: 0, 150, 300 MG/KG FOR 78 WK (STUDY DURATION: 91 WK), Dose: 0, 150, 300 MG/KG FOR 78 WK (STUDY DURATION: 91 WK)); “equivocal” (Species: MOUSE, Strain/Sex: B6C3F1/MALE, Route: GAVAGE, Dose: 0, 150, 300 MG/KG FOR 78 WK (STUDY DURATION: 91 WK), Dose: 0, 150, 300 MG/KG FOR 78 WK (STUDY DURATION: 91 WK), Tumor Site: Type of Lesion: LUNG: ADENOMA, CARCINOMA); “inactive; negative” (Species: MOUSE, Strain/Sex: C57BL/FEMALE, Route: GAVAGE, Dose: 0, 300 MG/KG BW IN 0.1 ML OLIVE OIL FOR LIFE BEGINNING POST WEANING ADMINISTERED TO OFFSPRING OF FEMALES GIVEN 1350 MG/K); “inactive; negative” (Species: MOUSE, Strain/Sex: C57BL/FEMALE, Route: GAVAGE, Dose: 0, 300 MG/KG BW IN 0.1 ML OLIVE OIL ONCE ON DAY 17 OF PREGNANCY (STUDY DURATION: 120 WK)); “inactive; negative” (Species: MOUSE, Strain/Sex: C57BL/MALE, Route: GAVAGE, Dose: 0, 300 MG/KG BW IN 0.1 ML OLIVE OIL FOR LIFE BEGINNING POST WEANING ADMINISTERED TO OFFSPRING OF FEMALES GIVEN 300 MG/KG); “active; positive” (Species: MOUSE, Strain/Sex: CD-1/FEMALE, Route: INHALATION, Dose: 0, 20, 40, 80, 160 PPM IN CHAMBER FOR 6 HR/D 5D/WK FOR 98 WK (STUDY DURATION: 98 WK), Dose: 0, 20, 40, 80, 160 PPM IN CHAMBER FOR 6 HR/D 5D/WK FOR 98 WK (STUDY DURATION: 98 WK), Tumor Site: Type of Lesion: LUNG: BRONCHIOLOALVEOLAR ADENOMA, BRONCHIOLOALVEOLAR CARCINOMA). Moreover, the carcinogen call is “active; positive” (Species: MOUSE, Strain/Sex: CD-1/MALE, Route: INHALATION, Dose: 0, 20, 40, 80, 160 PPM IN CHAMBER FOR 6 HR/D 5D/WK FOR 104 WK (STUDY DURATION: 104 WK), Dose: 0, 20, 40, 80, 160 PPM IN CHAMBER FOR 6 HR/D 5D/WK FOR 104 WK (STUDY DURATION: 104 WK), Tumor Site: Type of Lesion: LUNG: BRONCHIOLOALVEOLAR ADENOMA); “active; positive” (Species: MOUSE, Strain/Sex: O20/FEMALE, Route: GAVAGE, Dose: 0, 1350 MG/KG BW IN 0.1 ML OLIVE OIL FOR 16 WK POST WEANING ADMINISTERED TO OFFSPRING OF FEMALES GIVEN 1350 MG/KG ON DAY, Tumor Site: Type of Lesion: LUNG: ADENOMA OR CARCINOMA); “inactive; negative” (Species: MOUSE, Strain/Sex: O20/FEMALE, Route: GAVAGE, Dose: 0, 1350 MG/KG BW IN 0.1 ML OLIVE OIL ONCE ON DAY 17 OF PREGNANCY (STUDY DURATION: 120 WK)); “active; positive” (Species: MOUSE, Strain/Sex: O20/MALE,FEMALE, Route: GAVAGE, Tumor Site: Type of Lesion: LUNG: ADENOMA, ADENOCARCINOMA); “active; positive” (Species: MOUSE, Strain/Sex: O20/MALE, Route: GAVAGE, Dose: 0, 1350 MG/KG BW IN 0.1 ML OLIVE OIL FOR 16 WK POST WEANING ADMINISTERED TO OFFSPRING OF FEMALES GIVEN 1350 MG/KG ON DAY, Tumor Site: Type of Lesion: LUNG: ADENOMA OR CARCINOMA); “inactive; negative” (Species: MOUSE, Strain/Sex: STRAIN-A/FEMALE, Route: INTRAPERITONEAL, Dose: 0, 10 UMOL IN 0.1 ML OLIVE OIL 3/WK FOR 20 DOSES (TOTAL DOSE: 200 UMOL) (STUDY DURATION: 27 WK)). Also, the carcinogen call is, setting by setting: (Species: RAT, Strain/Sex: BDIV/FEMALE, Route: GAVAGE, Dose: 0, 500 MG/KG BW IN 0.3 ML OLIVE OIL FOR LIFE BEGINNING POST WEANING ADMINISTERED TO OFFSPRING OF FEMALES GIVEN 1350 MG/K) “inactive; negative”; (Species: RAT, Strain/Sex: BDIV/FEMALE, Route: GAVAGE, Dose: 0, 1350 MG/KG BW IN 0.3 ML OLIVE OIL ONCE ON DAY 17 OF PREGNANCY (STUDY DURATION: 120 WK)) “inactive; negative”; (Species: RAT, Strain/Sex: BDIV/MALE, Route: GAVAGE, Dose: 0, 500 MG/KG BW IN 0.3 ML OLIVE OIL FOR LIFE BEGINNING POST WEANING ADMINISTERED TO OFFSPRING OF FEMALES GIVEN 1350 MG/K) “inactive; negative”.
